Results as given in patent US9758524B2, “4-imidazopyridazin-1-yl-benzamides as Btk inhibitors” (Merck Sharp & Dohme B.V., priority 2011, dated 2017).
Where two headings read alike, the source gives them in different places.

Legend:
FynT enzyme = FynT enzyme (Homo sapiens (Human), UniProt P06241); test: FynT enzyme activity (IMAP fluorescence polarization assay); assay type: biochemical; conditions: 60 min pre-incubation, 0.2 μM ATP
Procedure, shortened: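 Human FynT pre-incubated with compounds 60 min at room temperature, then reacted 2 h at room temperature with fluorescein-labelled p34cdc2 peptide (100 nM final). Stopped with IMAP binding solution; fluorescence polarization read after 60 min. Activity as % of ±ATP control difference; EC50 by curve fitting.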

Btk enzyme (His-Btk) = Btk enzyme (His-Btk) (Homo sapiens (Human), UniProt Q06187); test: Btk enzyme activity (IMAP fluorescence polarization assay)
Chain of Btk enzyme (His-Btk) (Q06187 whole entry): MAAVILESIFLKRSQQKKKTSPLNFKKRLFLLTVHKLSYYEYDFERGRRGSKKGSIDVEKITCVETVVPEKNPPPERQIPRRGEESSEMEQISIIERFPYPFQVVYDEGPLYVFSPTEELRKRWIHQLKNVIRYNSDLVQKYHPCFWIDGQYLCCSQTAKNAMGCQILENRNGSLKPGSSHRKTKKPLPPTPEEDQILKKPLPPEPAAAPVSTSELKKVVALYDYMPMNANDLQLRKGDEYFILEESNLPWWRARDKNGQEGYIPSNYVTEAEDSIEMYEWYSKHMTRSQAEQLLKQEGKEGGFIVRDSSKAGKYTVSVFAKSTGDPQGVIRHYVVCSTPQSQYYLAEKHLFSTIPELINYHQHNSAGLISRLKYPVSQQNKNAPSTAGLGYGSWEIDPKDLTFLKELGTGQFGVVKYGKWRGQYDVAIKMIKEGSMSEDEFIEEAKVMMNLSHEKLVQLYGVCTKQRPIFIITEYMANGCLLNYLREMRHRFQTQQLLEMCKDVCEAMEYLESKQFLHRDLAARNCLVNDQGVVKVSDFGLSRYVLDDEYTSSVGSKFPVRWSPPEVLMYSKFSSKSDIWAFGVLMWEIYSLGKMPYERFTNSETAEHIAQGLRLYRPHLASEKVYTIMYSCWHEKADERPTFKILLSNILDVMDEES

Lck enzyme = Lck enzyme (Homo sapiens (Human), UniProt P06239); test: Lck enzyme activity (IMAP fluorescence polarization assay); conditions: read-out: EC50 Lck activity values; IMAP, 60 min pre-incubation, 6 μM ATP; bin bound in μM
Chain of Lck enzyme (P06239 whole entry): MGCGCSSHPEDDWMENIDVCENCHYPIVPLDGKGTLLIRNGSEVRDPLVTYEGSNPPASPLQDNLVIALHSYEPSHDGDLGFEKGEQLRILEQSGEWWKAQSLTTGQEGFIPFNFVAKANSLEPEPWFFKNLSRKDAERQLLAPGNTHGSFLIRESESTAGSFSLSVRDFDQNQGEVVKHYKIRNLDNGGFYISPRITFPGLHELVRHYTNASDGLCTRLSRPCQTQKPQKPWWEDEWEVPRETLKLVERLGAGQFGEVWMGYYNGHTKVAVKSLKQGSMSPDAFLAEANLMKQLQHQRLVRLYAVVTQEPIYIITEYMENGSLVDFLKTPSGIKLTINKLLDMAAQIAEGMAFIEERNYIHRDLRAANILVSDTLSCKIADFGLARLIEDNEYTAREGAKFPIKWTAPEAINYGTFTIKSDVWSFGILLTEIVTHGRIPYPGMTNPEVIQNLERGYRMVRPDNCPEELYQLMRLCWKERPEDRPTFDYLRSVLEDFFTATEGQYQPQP

Src enzyme = Src enzyme (Homo sapiens (Human), UniProt P12931); test: Src enzyme activity (IMAP fluorescence polarization assay); conditions: read-out: EC50 Src activity values; IMAP, 60 min pre-incubation, 4 μM ATP
Chain of Src enzyme (P12931 whole entry, looked up): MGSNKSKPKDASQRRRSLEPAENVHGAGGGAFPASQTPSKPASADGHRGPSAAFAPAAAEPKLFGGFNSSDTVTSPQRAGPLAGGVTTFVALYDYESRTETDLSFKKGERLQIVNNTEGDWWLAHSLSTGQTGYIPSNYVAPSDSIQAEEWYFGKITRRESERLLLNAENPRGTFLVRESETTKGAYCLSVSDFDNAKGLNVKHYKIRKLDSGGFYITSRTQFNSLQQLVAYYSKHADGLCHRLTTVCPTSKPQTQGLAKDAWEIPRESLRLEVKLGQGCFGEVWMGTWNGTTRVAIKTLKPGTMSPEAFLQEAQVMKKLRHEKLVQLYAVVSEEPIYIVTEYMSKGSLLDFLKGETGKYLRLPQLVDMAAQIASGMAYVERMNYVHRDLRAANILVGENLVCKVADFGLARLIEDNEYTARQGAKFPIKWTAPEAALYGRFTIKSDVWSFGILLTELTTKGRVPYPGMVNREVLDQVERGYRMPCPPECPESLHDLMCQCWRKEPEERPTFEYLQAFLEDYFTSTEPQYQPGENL

Lyn enzyme = Lyn enzyme (Homo sapiens (Human), UniProt P07948); test: Lyn enzyme activity (IMAP fluorescence polarization assay)
Chain of Lyn enzyme (P07948 whole entry): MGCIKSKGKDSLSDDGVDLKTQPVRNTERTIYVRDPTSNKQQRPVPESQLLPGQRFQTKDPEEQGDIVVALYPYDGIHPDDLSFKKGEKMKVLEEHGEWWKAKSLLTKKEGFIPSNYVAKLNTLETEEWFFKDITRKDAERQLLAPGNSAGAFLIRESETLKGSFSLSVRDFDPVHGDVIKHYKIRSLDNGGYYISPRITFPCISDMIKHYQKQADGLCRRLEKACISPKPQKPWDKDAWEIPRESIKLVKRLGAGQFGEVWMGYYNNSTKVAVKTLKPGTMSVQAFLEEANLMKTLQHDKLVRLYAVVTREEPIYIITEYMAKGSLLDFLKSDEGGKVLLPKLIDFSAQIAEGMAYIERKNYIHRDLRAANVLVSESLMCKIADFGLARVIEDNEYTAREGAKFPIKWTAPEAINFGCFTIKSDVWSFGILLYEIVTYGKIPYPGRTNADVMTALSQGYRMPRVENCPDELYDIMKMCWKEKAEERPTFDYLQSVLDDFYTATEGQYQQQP

[1] = read-out: EC50 Btk activity values, IMAP, 60 min pre-incubation, 5 μM ATP, bin bound in nM
[2] = read-out: EC50 Lyn activity values, 60 min pre-incubation, 2 μM ATP, bin bound in μM
[3] = IMAP, 60 min pre-incubation, 5 μM ATP, bin bound in nM

Chain of FynT enzyme (P06241 other isoform, or with tags, fused parts or gaps): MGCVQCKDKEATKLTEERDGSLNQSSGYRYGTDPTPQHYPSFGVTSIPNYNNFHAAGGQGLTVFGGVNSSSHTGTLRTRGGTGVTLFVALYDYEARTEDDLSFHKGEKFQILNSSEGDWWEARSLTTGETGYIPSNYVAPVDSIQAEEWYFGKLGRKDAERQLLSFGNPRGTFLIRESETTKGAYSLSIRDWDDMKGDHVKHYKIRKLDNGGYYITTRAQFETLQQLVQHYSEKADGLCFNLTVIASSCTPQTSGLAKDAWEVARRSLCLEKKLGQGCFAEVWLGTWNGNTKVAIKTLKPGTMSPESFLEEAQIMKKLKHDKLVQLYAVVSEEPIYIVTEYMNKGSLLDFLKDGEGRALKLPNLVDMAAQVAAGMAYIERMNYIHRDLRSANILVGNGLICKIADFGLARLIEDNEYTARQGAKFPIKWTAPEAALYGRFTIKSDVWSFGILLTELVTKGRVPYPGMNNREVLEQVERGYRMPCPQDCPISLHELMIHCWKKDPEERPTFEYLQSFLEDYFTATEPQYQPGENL

Row | Structure (SMILES) | EC50 (FynT enzyme) [nM] | EC50 (Btk enzyme (His-Btk); [1]) [nM] | EC50 (Lck enzyme) [µM] | EC50 (Src enzyme) [nM] | EC50 (Lyn enzyme; EC50 Lyn activity values, 60 min pre-incubation, 2 μM ATP, bin bound in μM) [µM] | EC50 (Lyn enzyme; [2]) [µM] | EC50 (Btk enzyme (His-Btk)) [nM] | EC50 Btk activity values (Btk enzyme (His-Btk); [3]) [nM]
1 | COC/C=C/C(=O)N1CCCC[C@H]1c1nc(-c2ccc(C(=O)Nc3cc(C(F)(F)F)ccn3)cc2)c2c(N)nccn12 [Example 108, (S,E)-4-(8-amino-3-(1-(4-methoxybut-2-enoyl)piperidin-2-yl)imidazo[1,5-a]pyrazin-1-yl)-N-(4-(trifluoromethyl)pyridin-2-yl)benzamide] | ≥ 1000 | < 10 | ≥ 1 | ≥ 1000 | ≥ 1 |  |  | 
2 | C=CC(=O)N1CCCC[C@H]1c1nc(-c2ccc(C(=O)Nc3cc(C(F)(F)F)ccn3)cc2)c2c(N)nccn12 [Example 109, (S)-4-(3-(1-acryloylpiperidin-2-yl)-8-aminoimidazo[1,5-a]pyrazin-1-yl)-N-(4-(trifluoromethyl)pyridin-2-yl)benzamide] | ≥ 1000 | < 10 | ≥ 1 | ≥ 1000 |  | ≥ 1 |  | 
3 | CC#CC(=O)N1CCCC[C@H]1c1nc(-c2ccc(C(=O)Nc3cc(CCC)ccn3)c(OC)c2)c2c(N)nccn12 [Example 110, (S)-4-(8-amino-3-(1-but-2-ynoylpiperidin-2-yl)imidazo[1,5-a]pyrazin-1-yl)-2-methoxy-N-(4-propylpyridin-2-yl)benzamide] | ≥ 1000 | < 10 | ≥ 1 | ≥ 1000 |  | ≥ 1 |  | 
4 | CC#CC(=O)NCc1nc(-c2ccc(C(=O)Nc3ccccn3)cc2)c2c(N)nccn12 [Example 112, 4-(8-amino-3-(but-2-ynamidomethyl)imidazo[1,5-a]pyrazin-1-yl)-N-(pyridin-2-yl)benzamide] | ≥ 1000 |  | ≥ 1 | ≥ 1000 |  | ≥ 1 | 10 to 100 | <100
5 | CC#CC(=O)N(C)[C@@H](C)c1nc(-c2ccc(C(=O)Nc3cc(CCC)ccn3)cc2)c2c(N)nccn12 [Example 113, (S)-4-(8-amino-3-(1-(N-methylbut-2-ynamido)ethyl)imidazo[1,5-a]pyrazin-1-yl)-N-(4-propylpyridin-2-yl)benzamide] | ≥ 1000 |  | ≥ 1 | ≥ 1000 |  | ≥ 1 | 10 to 100 | <100
6 | CCCc1ccnc(NC(=O)c2ccc(-c3nc([C@@H]4CCCCN4C(=O)/C=C/COC)n4ccnc(N)c34)cc2F)c1 [Example 114, (S,E)-4-(8-amino-3-(1-(4-methoxybut-2-enoyl)piperidin-2-yl)imidazo[1,5-a]pyrazin-1-yl)-2-fluoro-N-(4-propylpyridin-2-yl)benzamide] | ≥ 1000 |  | ≥ 1 | ≥ 1000 |  | ≥ 1 | 10 to 100 | <100
7 | Nc1nccn2c([C@@H]3CCCCN3C(=O)c3ccnc(Cl)n3)nc(-c3ccc(C(=O)Nc4cc(C(F)(F)F)ccn4)cc3)c12 [Example 115, (S)-4-(8-amino-3-(1-(2-chloropyrimidine-4-carbonyl)piperidin-2-yl)imidazo[1,5-a]pyrazin-1-yl)-N-(4-(trifluoromethyl)pyridin-2-yl)benzamide] | ≥ 1000 | < 10 | ≥ 1 | ≥ 1000 |  | ≥ 1 |  | 
8 | CC#CC(=O)N1CCCC[C@H]1c1nc(-c2ccc(C(=O)Nc3ncc(CC)s3)cc2)c2c(N)nccn12 [Example 116, (S)-4-(8-amino-3-(1-but-2-ynoylpiperidin-2-yl)imidazo[1,5-a]pyrazin-1-yl)-N-(5-ethylthiazol-2-yl)benzamide] | ≥ 1000 | < 10 | ≥ 1 | ≥ 1000 |  | ≥ 1 |  | 
9 | C=CC(=O)N1CCCC[C@H]1c1nc(-c2ccc(C(=O)Nc3ncc(CC)s3)cc2)c2c(N)nccn12 [Example 117, (S)-4-(3-(1-acryloylpiperidin-2-yl)-8-aminoimidazo[1,5-a]pyrazin-1-yl)-N-(5-ethylthiazol-2-yl)benzamide] | ≥ 1000 | < 10 | ≥ 1 | ≥ 1000 |  | ≥ 1 |  | 
